Reference: patent US9839622B2, “Methods of treating hypothalamic obesity” (Zafgen, Inc., priority 2012, dated 2017)

What was measured:
[1] = Treatment of obese humans also taking anti-depressants known to cause hypothalamic obesity; format: in vivo, human; settings: obese humans on anti-depressants, average dose 1.44 mg twice weekly subcutaneous
Experimental: FIG. 3 depicts percentage reduction in body weight by up to seven weeks of treatment with 6-O-(4-dimethylaminoethoxy)cinnamoyl fumagillol (ZGN-440; average dose of 1.44 mg administered twice weekly by subcutaneous administration, n=5) or placebo (administered twice weekly by subcutaneous administration, n=2) in obese human patients treated otherwise for depression with mirtazapine, sertraline, imipramine, paroxetine, or amitryptyline.
Five of these patients were also administered ZGN-440 (average dose of 1.44 mg, administered twice weekly by subcutaneous administration). On average, patients lost 5.4 percent of their baseline body weight over the seven week treatment. […] At baseline, the average (±SEM) body weight was 100.2±3.2 kg, and the average body mass index was 38.8±1.7 kg/m^2. […] (FIG. 3).

[2] = Mouse model of hypothalamic injury (gold thioglucose); format: in vivo, C57/BL6 mice; settings: 0.1 mg/kg daily subcutaneous
Experimental: FIG. 1 depicts body weight change (percent) of C57/BL6 mice treated with single dose of 0.5 g/kg gold thioglucose, and after 40 days, started on 0.1 mg/kg daily subcutaneous dose of 6-O-(4-dimethylaminoethoxy)cinnamoyl fumagillol (ZGN-440). FIG. 2 depicts normalized food intake in GTG mice to the level of normal mice that were not treated with gold thioglucose, after 0.1 mg/kg daily subcutaneous dose of 6-O-(4-dimethylaminoethoxy)cinnamoyl fumagillol. Gold thioglucose (GTG) is a chemical treatment used as a model of hypothalamic injury. C57/BL6 mice were treated with single dose of 0.5 g/kg gold thioglucose. After 40 days a cohort was started on 0.1 mg/kg daily subcutaneous dose of 6-O-(4-dimethylaminoethoxy)cinnamoyl fumagillol (ZGN-440). […] (FIG. 1). The food intake level of GTG treated mice was increased to over 3 g/day/mouse, where in GTG mice treated with ZGN-440 the food intake decreased to the level of normal mice that were not treated with gold thioglucose (below 3 g/day). (FIG. 2).

CO[C@@H]1[C@H](OC(=O)/C=C/c2ccc(OCCN(C)C)cc2)CC[C@]2(CO2)[C@H]1[C@@]1(C)O[C@@H]1CC=C(C)C [ZGN-440, 6-O-(4-dimethylaminoethoxy)cinnamoyl fumagillol]
loss of baseline body weight (average) ([1]; n=5, seven week treatment, FIG. 3): 5.4% | weight loss vs. placebo (percent change of body weight from baseline, Student's t test) ([1]; up to seven weeks, placebo failed to lose weight): statistically significant | body weight change ([2]; GTG (0.5 g/kg single dose) C57/BL6 mice, started after 40 days, FIG. 1): Significant weight loss | food intake ([2]; GTG mice, untreated GTG mice over 3 g/day/mouse, FIG. 2): below 3 g/day
